Measured values reported in patent US20190076466A1, “REDUCED SODIUM POLOXAMER-188 FORMULATIONS AND METHODS FOR USE” (MAST THERAPEUTICS, INC., priority 2015, published 2019).

Test: osmolality by vapor pressure osmometry
Settings: no poloxamer
Description: The osmolality of LCMF poloxamer 188 in water was evaluated over the range 25 mg/mL to 400 mg/mL using vapor pressure osmometry (Table 7). […] Any solutions with osmolality values below 270 mOsm/kg or above 300 mOsm/kg are considered hypotonic and hypertonic respectively.
Drug substance was added to sterile water for injection at 6 concentrations ranging from 15% to 40% and the osmolality values of the solutions were recorded. Sodium chloride was then added to sterile water for injection to make six sodium chloride solutions with osmolality values matching those of the poloxamer 188 solutions. An isotonic 15% poloxamer 188 solution was used as a comparator.

SMILES: [Cl-].[Na+] [NaCl, Sodium chloride]
- Osmolality (0.36% (w/w) NaCl in SWFI): 116 mOsm/kg
- Osmolality (0.74% (w/w) NaCl in SWFI): 224 mOsm/kg
- Osmolality (1.35% (w/w) NaCl in SWFI): 432 mOsm/kg
- Osmolality (3.13% (w/w) NaCl in SWFI): 995 mOsm/kg
- Osmolality ([…] (w/w) NaCl in SWFI): 690 mOsm/kg
